We go through 6 molecules from ChEMBL document CHEMBL2073997, “Effect of multidrug resistance-reversing agents on transporting activity of human canalicular multispecific organic anion transporter” (Mol Pharmacol, 1999).

The term Ki denotes the dissociation constant of the complex between target and ligand, obtained from inhibition or displacement. In general, Km refers to the substrate concentration at which the rate is half of its maximum.

The target in data set [1] is T1, ATP-binding cassette sub-family C member 2 (Homo sapiens, UniProt Q92887). Nature of the data set: TP_TRANSPORTER: increase in Vincristine intracellular accumulation (Vincristine: 1 uM, PSC-833: 10 uM) in MRP2-expressing LLC PK1 cells. Format: functional, cell-based. Particulars: pig, llc-pk1, 10 µM.
The target of data set [2] is T1, ATP-binding cassette sub-family C member 2. Nature of the data set: TP_TRANSPORTER: inhibition of LTC4 uptake in membrane vesicles from MRP2-expressing LLC PK1 cells. Format: functional, cell membranes, Membrane vesicle.
The target is the same in data set [3]. The data set can be described thus: TP_TRANSPORTER: increase in Vincristine intracellular accumulation (Vincristine: 1 uM, MK571: 10 uM) in MRP2-expressing LLC PK1 cells. Format: functional, cell-based. Particulars: pig, llc-pk1, 10 µM.
Data set [4] has the same target. Nature of the data set: (§1) TP_TRANSPORTER: uptake in membrane vesicles from MRP2-expressing LLC PK1 cells. Format: functional, cell membranes, Membrane vesicle. Particulars: pig.
The target is the same in data set [5]. Nature of the data set: TP_TRANSPORTER: increase in Vincristine intracellular accumulation (Vincristine: 1 uM, PAK-104P: 10 uM) in MRP2-expressing LLC PK1 cells. Particulars: pig, llc-pk1, 10 µM. Format: functional, cell-based.
For data set [6] the target is unchanged. Nature of the data set: TP_TRANSPORTER: intracellular accumulation in MRP2-expressing LLC PK1 cells. Particulars: pig. Format: functional, cell-based.
Substrate in data set [7]: CCCCC/C=C\C\C=C/C=C/C=C/[C@@H](SC[C@@H](NC(=O)CC[C@H](N)C(=O)O)C(=O)NCC(=O)O)[C@@H](O)CCCC(=O)O
The data set is described as §1. The format is functional, cell membranes, Membrane vesicle.

Take `C/C=C/C[C@@H](C)C(=O)[C@H]1C(=O)N[C@@H](C(C)C)C(=O)N(C)CC(=O)N(C)[C@@H](CC(C)C)C(=O)N[C@@H](C(C)C)C(=O)N(C)[C@@H](CC(C)C)C(=O)N[C@@H](C)C(=O)N[C@H](C)C(=O)N(C)[C@@H](CC(C)C)C(=O)N(C)[C@@H](CC(C)C)C(=O)N(C)[C@@H](C(C)C)C(=O)N1C` [VALSPODAR]: in data set [1], the Activity entry was “inhibitor [+]”. Affinity in data set [2] was put at a Ki of 28.9 µM. With `CN(C)C(=O)CCSC(SCCC(=O)O)c1cccc(/C=C/c2ccc3ccc(Cl)cc3n2)c1` (centres undefined) [MK-571], in data set [2], the Ki was determined as 13.1 µM. The Activity entry in data set [3] was “inhibitor [+]”. Turning to `N[C@@H](CCC(=O)N[C@H](CSc1ccc([N+](=O)[O-])cc1[N+](=O)[O-])C(=O)NCC(=O)O)C(=O)O`, the Activity entry in data set [4] is “substrate [+]”. In the case of `Cc1nc(C)c(P2(=O)O[C@H](C)C[C@@H](C)O2)c(-c2cccc([N+](=O)[O-])c2)c1C(=O)OCCN1CCN(C(c2ccccc2)c2ccccc2)CC1` (some centres undefined), the Ki in data set [2] is 3.7 µM. Also, the Activity result in data set [5] is “inhibitor [+]”. `CC[C@]1(O)C[C@H]2CN(CCc3c([nH]c4ccccc34)[C@@](C(=O)OC)(c3cc4c(cc3OC)N(C=O)[C@H]3[C@@](O)(C(=O)OC)[C@H](OC(C)=O)[C@]5(CC)C=CCN6CC[C@]43[C@@H]65)C2)C1` [VINCRISTINE]: in data set [6], the Activity entry is “substrate [+]”.

B1: ATP-binding cassette sub-family C member 2 (Homo sapiens) (protein)
chain: MLEKFCNSTFWNSSFLDSPEADLPLCFEQTVLVWIPLGYLWLLAPWQLLHVYKSRTKRSSTTKLYLAKQVFVGFLLILAAIELALVLTEDSGQATVPAVRYTNPSLYLGTWLLVLLIQYSRQWCVQKNSWFLSLFWILSILCGTFQFQTLIRTLLQGDNSNLAYSCLFFISYGFQILILIFSAFSENNESSNNPSSIASFLSSITYSWYDSIILKGYKRPLTLEDVWEVDEEMKTKTLVSKFETHMKRELQKARRALQRRQEKSSQQNSGARLPGLNKNQSQSQDALVLEDVEKKKKKSGTKKDVPKSWLMKALFKTFYMVLLKSFLLKLVNDIFTFVSPQLLKLLISFASDRDTYLWIGYLCAILLFTAALIQSFCLQCYFQLCFKLGVKVRTAIMASVYKKALTLSNLARKEYTVGETVNLMSVDAQKLMDVTNFMHMLWSSVLQIVLSIFFLWRELGPSVLAGVGVMVLVIPINAILSTKSKTIQVKNMKNKDKRLKIMNEILSGIKILKYFAWEPSFRDQVQNLRKKELKNLLAFSQLQCVVIFVFQLTPVLVSVVTFSVYVLVDSNNILDAQKAFTSITLFNILRFPLSMLPMMISSMLQASVSTERLEKYLGGDDLDTSAIRHDCNFDKAMQFSEASFTWEHDSEATVRDVNLDIMAGQLVAVIGPVGSGKSSLISAMLGEMENVHGHITIKGTTAYVPQQSWIQNGTIKDNILFGTEFNEKRYQQVLEACALLPDLEMLPGGDLAEIGEKGINLSGGQKQRISLARATYQNLDIYLLDDPLSAVDAHVGKHIFNKVLGPNGLLKGKTRLLVTHSMHFLPQVDEIVVLGNGTIVEKGSYSALLAKKGEFAKNLKTFLRHTGPEEEATVHDGSEEEDDDYGLISSVEEIPEDAASITMRRENSFRRTLSRSSRSNGRHLKSLRNSLKTRNVNSLKEDEELVKGQKLIKKEFIETGKVKFSIYLEYLQAIGLFSIFFIILAFVMNSVAFIGSNLWLSAWTSDSKIFNSTDYPASQRDMRVGVYGALGLAQGIFVFIAHFWSAFGFVHASNILHKQLLNNILRAPMRFFDTTPTGRIVNRFAGDISTVDDTLPQSLRSWITCFLGIISTLVMICMATPVFTIIVIPLGIIYVSVQMFYVSTSRQLRRLDSVTRSPIYSHFSETVSGLPVIRAFEHQQRFLKHNEVRIDTNQKCVFSWITSNRWLAIRLELVGNLTVFFSALMMVIYRDTLSGDTVGFVLSNALNITQTLNWLVRMTSEIETNIVAVERITEYTKVENEAPWVTDKRPPPDWPSKGKIQFNNYQVRYRPELDLVLRGITCDIGSMEKIGVVGRTGAGKSSLTNCLFRILEAAGGQIIIDGVDIASIGLHDLREKLTIIPQDPILFSGSLRMNLDPFNNYSDEEIWKALELAHLKSFVASLQLGLSHEVTEAGGNLSIGQRQLLCLGRALLRKSKILVLDEATAAVDLETDNLIQTTIQNEFAHCTVITIAHRLHTIMDSDKVMVLDNGKIIECGSPEELLQIPGPFYFMAKEAGIENVNSTKF
Regarding B1, the Km in data set [7] came to 0.26 µM.
